Assay results reported in patent US10604494B2, “Acylated N-(1 ,2,5-oxadiazol-3-yl)-, N-(1,3,4-oxadiazol-2-yl)-, N-(tetrazol-5-yl)- and N-(triazol-5-yl)-aryl carboxamides, and use thereof as herbicides” (Bayer CropScience Aktiengesellschaft, priority 2015, dated 2020).

Key:
Type in all cases: in vivo
Abutilon theophrasti [1] = experiment: Pre-emergence herbicidal action against harmful plants; settings: 504 h, application rate 320 g/ha, scored visually after 3 weeks vs untreated controls, 100% = plants have died, 0% = like control plants, read-out: efficacy (herbicidal activity in percent) against Abutilon theophrasti
Text: (§1) 1. Pre-Emergence Herbicidal Action Against Harmful Plants Seeds of monocotyledonous and dicotyledonous weed plants and crop plants are laid out in sandy loam in wood-fiber pots and covered with soil. The compounds of the invention, formulated in the form of wettable powders (WP) or as emulsion concentrates (EC), are then applied to the surface of the covering soil in the form of an aqueous suspension or emulsion at a water application rate equating to 600 to 800 I/ha, with addition of 0.2% wetting agent. After the treatment, the pots are placed in a greenhouse and kept under good growth conditions for the trial plants. The damage to the test plants is scored visually after a test period of 3 weeks by comparison with untreated controls (herbicidal activity in percent (%): 100% activity=the plants have died, 0% activity=like control plants). In this case, for example, compound Nos. 1-086, 1-028, 1-206, 1-447, 1-448, 1-449, 1-454, 1-458, 1-470, 1-471, 1-472, 1-477, 1-487, 2-477, 2-480, 2-500, 3-143, 3-475, 3-491, 4-188, 4-495, 4-430, 4-496, 13-001, 13-031 and 13-032, at an application rate of 320 g/ha, each show at least 80% efficacy against Abutilon theophrasti and Veronica persica.

Veronica persica [2] = experiment: as above; settings: 504 h, application rate 320 g/ha, scored visually after 3 weeks vs untreated controls, 100% = plants have died, 0% = like control plants, read-out: efficacy (herbicidal activity in percent) against Veronica persica
Text: as §1

Abutilon theophrasti [3] = experiment: Post-emergence herbicidal action against harmful plants; settings: 504 h, one-leaf stage, application rate 80 g/ha, assessed visually after about 3 weeks vs untreated controls, 100% = plants have died, 0% = like control plants, read-out: efficacy (herbicidal action in percent) against Abutilon theophrasti
Experimental: (§2) 2. Post-Emergence Herbicidal Action Against Harmful Plants Seeds of monocotyledonous and dicotyledonous weed and crop plants are laid out in sandy loam soil in wood-fiber pots, covered with soil and cultivated in a greenhouse under good growth conditions. 2 to 3 weeks after sowing, the test plants are treated at the one-leaf stage. The compounds of the invention, formulated in the form of wettable powders (WP) or as emulsion concentrates (EC), are then sprayed onto the green parts of the plants in the form of an aqueous suspension or emulsion at a water application rate equating to 600 to 800 I/ha, with addition of 0.2% wetting agent. After the test plants have been left to stand in the greenhouse under optimal growth conditions for about 3 weeks, the action of the preparations is assessed visually in comparison to untreated controls (herbicidal action in percent (%): 100% activity=the plants have died, 0% activity=like control plants). In this case, for example, compound Nos. 1-028, 1-085, 1-086, 1-206, 1-447, 1-448, 1-449, 1-453, 1-457, 1-460, 1-470, 1-471, 1-472, 1-487, 2-500, 3-143, 3-146, 3-487, 3-491, 3-492, 4-144, 4-188, 13-001, 13-031 and 13-032, at an application rate of 80 g/ha, each show at least 80% efficacy against Abutilon theophrasti and Veronica persica.

Veronica persica [4] = experiment: as above; settings: 504 h, one-leaf stage, application rate 80 g/ha, assessed visually after about 3 weeks vs untreated controls, 100% = plants have died, 0% = like control plants, read-out: efficacy (herbicidal action in percent) against Veronica persica
Experimental: as §2

Cc1c(C(=O)N(C(=O)c2ccc(C(F)(F)F)c(N)c2C)c2nnnn2C)ccc(C(F)(F)F)c1N [1-447]
≥ 80%: pest or weed control at 320 g/ha (Abutilon theophrasti [1]) | pest or weed control at 320 g/ha (Veronica persica [2]) | pest or weed control at 80 g/ha (Abutilon theophrasti [3]) | pest or weed control at 80 g/ha (Veronica persica [4])

CCOc1ccc(C(=O)N(C(=O)c2ccc(OCC)c(SC)c2C)c2nnnn2C)c(C)c1SC [1-457]
≥ 80%: pest or weed control at 80 g/ha (Abutilon theophrasti [3]) | pest or weed control at 80 g/ha (Veronica persica [4])

Cc1nonc1N(C(=O)c1ccc(C(F)(F)F)c([S+](C)[O-])c1C)C(=O)c1ccc(C(F)(F)F)c([S+](C)[O-])c1C (centres unmarked) [4-144]
≥ 80%: pest or weed control at 80 g/ha (Abutilon theophrasti [3]) | pest or weed control at 80 g/ha (Veronica persica [4])

CC(C)c1c(C(=O)N(C(=O)c2ccc(C(F)(F)F)c(S(C)(=O)=O)c2C(C)C)c2nnnn2C)ccc(C(F)(F)F)c1S(C)(=O)=O [1-206]
≥ 80%: pest or weed control at 320 g/ha (Abutilon theophrasti [1]) | pest or weed control at 320 g/ha (Veronica persica [2]) | pest or weed control at 80 g/ha (Abutilon theophrasti [3]) | pest or weed control at 80 g/ha (Veronica persica [4])

Cc1c(C(=O)N(C(=O)c2ccc(C(F)(F)F)c(N(C)C)c2C)c2nnnn2C)ccc(C(F)(F)F)c1N(C)C [1-448]
≥ 80%: pest or weed control at 320 g/ha (Abutilon theophrasti [1]) | pest or weed control at 320 g/ha (Veronica persica [2]) | pest or weed control at 80 g/ha (Abutilon theophrasti [3]) | pest or weed control at 80 g/ha (Veronica persica [4])

CNc1c(C(F)(F)F)ccc(C(=O)N(C(=O)c2ccc(C(F)(F)F)c(NC)c2C)c2nnnn2C)c1C [1-449]
≥ 80%: pest or weed control at 320 g/ha (Abutilon theophrasti [1]) | pest or weed control at 320 g/ha (Veronica persica [2]) | pest or weed control at 80 g/ha (Abutilon theophrasti [3]) | pest or weed control at 80 g/ha (Veronica persica [4])

CCOc1c(C(=O)N(C(=O)c2ccc(C(F)(F)F)c(S(C)(=O)=O)c2OCC)c2nnnn2C)ccc(C(F)(F)F)c1S(C)(=O)=O [1-472]
≥ 80%: pest or weed control at 320 g/ha (Abutilon theophrasti [1]) | pest or weed control at 320 g/ha (Veronica persica [2]) | pest or weed control at 80 g/ha (Abutilon theophrasti [3]) | pest or weed control at 80 g/ha (Veronica persica [4])

CC[S+]([O-])c1c(S(C)(=O)=O)ccc(C(=O)N(C(=O)c2ccc(S(C)(=O)=O)c([S+]([O-])CC)c2C)c2nonc2C)c1C (centres unmarked) [4-188]
≥ 80%: pest or weed control at 320 g/ha (Abutilon theophrasti [1]) | pest or weed control at 320 g/ha (Veronica persica [2]) | pest or weed control at 80 g/ha (Abutilon theophrasti [3]) | pest or weed control at 80 g/ha (Veronica persica [4])

CSc1c(N(C)C)ccc(C(=O)N(C(=O)c2ccc(N(C)C)c(SC)c2C)c2nnnn2C)c1C [1-454]
≥ 80%: pest or weed control at 320 g/ha (Abutilon theophrasti [1]) | pest or weed control at 320 g/ha (Veronica persica [2])

CCOC(=O)c1c(SC)ccc(C(=O)N(C(=O)c2ccc(SC)c(C(=O)OCC)c2C)c2nnnn2C)c1C [1-453, 3-(ethoxycarbonyl)-2-methyl-4-(methylsulfanyl)-N-(3-(ethoxycarbonyl)-2-methyl-4-(methylsulfanyl)benzoyl)-N-(1-methyltetrazol-5-yl)benzamide]
≥ 80%: pest or weed control at 80 g/ha (Abutilon theophrasti [3]) | pest or weed control at 80 g/ha (Veronica persica [4])

CSc1cc(C)cc(C(=O)N(C(=O)c2cc(C)cc(SC)c2C)c2nnnn2C)c1C [1-460]
≥ 80%: pest or weed control at 80 g/ha (Abutilon theophrasti [3]) | pest or weed control at 80 g/ha (Veronica persica [4])

CSc1c(OCC(F)(F)F)ccc(C(=O)N(C(=O)c2ccc(OCC(F)(F)F)c(SC)c2C)c2nnnn2C)c1C [1-458]
≥ 80%: pest or weed control at 320 g/ha (Abutilon theophrasti [1]) | pest or weed control at 320 g/ha (Veronica persica [2])

CCOc1c(C(=O)N(C(=O)c2ccc(C(F)(F)F)c(SC)c2OCC)c2nnnn2C)ccc(C(F)(F)F)c1SC [1-471]
≥ 80%: pest or weed control at 320 g/ha (Abutilon theophrasti [1]) | pest or weed control at 320 g/ha (Veronica persica [2]) | pest or weed control at 80 g/ha (Abutilon theophrasti [3]) | pest or weed control at 80 g/ha (Veronica persica [4])

CC(=O)N(C(=O)c1ccc(C(F)(F)F)cc1S(C)(=O)=O)c1nnnn1C [13-001, 2-(methylsulfonyl)-4-trifluoromethyl-N-acetyl-N-(1-methyltetrazol-5-yl)benzamide]
≥ 80%: pest or weed control at 320 g/ha (Abutilon theophrasti [1]) | pest or weed control at 320 g/ha (Veronica persica [2]) | pest or weed control at 80 g/ha (Abutilon theophrasti [3]) | pest or weed control at 80 g/ha (Veronica persica [4])
